Test results: US8470340B2, “Peptides presenting an epitope of a domain of factor H binding protein and methods of use” (priority 2008, dated 2013)
Ends that are not written are not given here.

Legend:
JAR4 mAb [1] = assay: […] of phage library clones; format: binding, murine; conditions: JAR4 coated at 1 μg/ml, cleared phage supernatant, absorbance at 450 nm
Protocol: […]—Aliquots in 96 wells ELISA plates 100 μl per well of JAR4 mAb were diluted (1 μg/ml) in 50 mM NaHC03, 0.02% (w/v) NaN3, pH 9.6 and incubated 3 hrs at 37° C. or overnight at 4° C. After washing 8 times with 1×PBS containing 0.05% (v/v) TWEEN 20), 200 μl of blocking buffer (PBS, 0.05% TWEEN 20, 5% non-fat dry milk) was added and incubated for 1 hr at 37° C. The wash was discarded and a mixture of 100 μl cleared phage supernatant and 100 μl blocking buffer was added, to the plate and incubated for 3 hrs at 37° C. or overnight at 4° C. After washing 8 times with 1×PBS containing 0.05% (v/v) TWEEN 20), and anti-M13 peroxidase conjugate antibody (Amersham Biosciences, Buckinghamshire, UK) was added at a dilution of […] in blocking buffer (100 μl/well) and incubated for 1 h at 37° C. After further washing, antibody binding was detected by adding TMB substrate, incubated for 45 min at room temperature and stopped with […] of 1 M H2SO4 and reading absorbance at 450 nm.
(§1) In order to identify peptides useful in eliciting antibodies having the eptitope-binding properties of the JAR 4 mAb, libraries of filamentous bacteriophage containing random peptides (9-mers and 12-mers) fused to protein VIII were screened using the JAR 4 mAb as described above. Phage eluted in the final step were used to infect host bacteria, from which the phagemids were collected and the relevant DNA sequence amplified by PCR and sequenced to identify the peptides that interacted with JAR 4 mAb. The relative binding affinity of the peptide of the isolated phage was determined by both […] and […], as described above.

JAR4 mAb [2] = assay: […] of phage library clones; format: binding, murine; conditions: phage captured by anti-pIII mAb, JAR4 detection, absorbance at 405 nm
Protocol: —Ninety-six wells plates were coated o.n. at 4° C. with 100 μl per well of a rat anti-pili (coat protein III) monoclonal antibody (concentration 1 mg/ml) in 50 mM NaHC03, 0.02% (w/v) NaN3, pH 9.6, and washed 8 times with TBST (50 mM Tris/Cl, 150 mM NaCl, pH 7.5, 0.05% (v/v) TWEEN 20). One hundred μl per well of cleared phage supernatant was added. After washing as above and incubation with antibody (concentration 1 mg/ml) in blocking buffer (5% (w/v) non-fat dry milk, 0.05% TWEEN 20 in PBS), and washing, the binding of the monoclonal antibody was detected by alkaline-phosphatase conjugated goat anti-mouse IgG antibody (Sigma, dilution 1:5000) using p-nitrophenyl phosphate substrate tablets (Sigma).
as §1

anti-fHbp mAb JAR 4 = assay: Direct binding ELISA of mAb to KLH-conjugated peptides; parameters: species or system murine; conditions: for mAb Reactivity JAR 4: KLH-conjugated peptide coated at 2 μg/ml; for reactivity with JAR 4 by ELISA: KLH-conjugated peptides, in words
Protocol: (§2) The ability of anti-fHbp mAb JAR 4 to bind to the KLH-conjugated peptides was determined by a direct binding ELISA. ELISA plates were coated with 100 μl per well of a 2 μg/ml (peptide concentration) solution at 4° C. overnight. The following morning, the plates were washed and then blocked with PBS containing 1% BSA. The plates were washed and incubated with serial dilutions of mAb JAR 4 or, as a control, anti-fHbp JAR 5 or anti-PorA P1.2 mAb. After incubation (1 hour at room temperature), the plates were washed and incubated with anti-mouse IgG conjugated either with alkaline phosphatase or IRDye 800CW (1:1000). The alkaline phosphatase was detected at 420 nm wavelength after 30 min incubation with phosphatase substrate (1 mg/ml) and the IRDye was detected at 800 nm wavelength.

anti-fHbp JAR 5 = assay: as above; parameters: species or system murine; conditions: for mAb Reactivity JAR 5: KLH-conjugated peptide coated at 2 μg/ml; for binding to control mAb anti-fHbp JAR 5: KLH-conjugated peptides, in words
Protocol: as §2

anti-PorA P1.2 mAb = assay: as above; conditions: KLH-conjugated peptide coated at 2 μg/ml
Protocol: as §2

JAR 4 = assay: ELISA binding of mAb to site-specific mutant recombinant v.1 fHbp; parameters: species or system murine; conditions: v.1 fHbp (gene from MC58) alanine mutants
Protocol: Site-specific mutagenesis was used to test the role of amino acid residues involved in the JAR 4 anti-fHbp mAb epitope. Mutagenesis was performed using the QuikChange II kit (Stratagene) using 10 ng of plasmid template and the manufacturer's protocols. For testing residues putatively involved in mAb epitopes, mutagenesis reactions were performed on pET21-based plasmids encoding a wild-type fHbp gene. Site-specific mutagenesis was used to introduce the H26A and K27A substitution into the pET21 plasmid encoding v.1 fHbp from MC58. Mutant fHbp genes were confirmed by DNA sequencing as described for the wild-type plasmids, above.
Site-directed mutagenesis of residues 25, 26 and 27 was performed, each of which was individually changed to alanine in fHbp from the v.1 group (gene from MC58). These mutants were created using the non-signal containing sequence from strain MC58 (MVAAD . . . GLAAKQ) (SEQ ID NO:73), and are referred to as D25A, H26A and K27A, respectively. The amino acid sequences of the portions of the A domains of these mutants is provided in FIG. 7, Panel A. Results of the binding experiment between mutated fHbp and the various JAR mAbs are shown in FIG. 6.

Row | Molecule | PHAGELISA (JAR4 mAb [1]) | SEPHELISA (JAR4 mAb [2]) | further results
1 | 16 (HDHKHGFQEPAS) [Clone 16] | + (O.D. from 0.15 to 0.5) | + (O.D. from 0.15 to 0.5) | 
2 | 14 (WVLCGQGCGGTA) [Clone 14] | + (O.D. from 0.15 to 0.5) | + (O.D. from 0.15 to 0.5) | 
3 | 2 (CGGVYDDKTGCA) [Clone 2] | ++ (O.D. from 0.5 to 1) | ++++ (O.D. from 2 to 3.5) | 
4 | 10 (HVHRGSQGGQRQ) [Clone 10] | + (O.D. from 0.15 to 0.5) | + (O.D. from 0.15 to 0.5) | 
5 | AEGEFHDHKLEGTEDPAKC (also: conjugated to KLH) [JAR 4 Phage 3, synthetic peptide conjugated to keyhole limpet hemocyanin (KLH)] |  |  | mAb Reactivity JAR 4 (anti-fHbp mAb JAR 4): + (50% of maximal binding at 1-10 μg/ml); reactivity with JAR 4 by ELISA (anti-fHbp mAb JAR 4): reacted; mAb Reactivity JAR 5 (anti-fHbp JAR 5): − (no detectable binding at 50 μg/ml); binding to control mAb anti-fHbp JAR 5 (anti-fHbp JAR 5): no detectable binding
6 | 15 (RCQVQVMVLCAL) [Clone 15] | + (O.D. from 0.15 to 0.5) | + (O.D. from 0.15 to 0.5) | 
7 | 4 (WTLAVFDHKAQT) [Clone 4] | +++ (O.D. from 1 to 2) | +++ (O.D. from 1 to 2) | 
8 | ALTAPLDHKDKGLQSDPAKC (also: conjugated to KLH) [JAR 4 Native, reference compound] |  |  | mAb Reactivity JAR 4 (anti-fHbp mAb JAR 4): − (no detectable binding at 50 μg/ml); mAb Reactivity JAR 5 (anti-fHbp JAR 5): − (no detectable binding at 50 μg/ml)
9 | AEGEFHDHKTQLDPDPAKC (also: conjugated to KLH) [JAR 4 Phage 1, synthetic peptide conjugated to keyhole limpet hemocyanin (KLH)] |  |  | mAb Reactivity P1.2 (anti-PorA P1.2 mAb): − (no detectable binding at 50 μg/ml); mAb Reactivity JAR 4 (anti-fHbp mAb JAR 4): ++ (50% of maximal binding at < 1 μg/ml); reactivity with JAR 4 by ELISA (anti-fHbp mAb JAR 4): reacted; mAb Reactivity JAR 5 (anti-fHbp JAR 5): − (no detectable binding at 50 μg/ml); binding to control mAb anti-fHbp JAR 5 (anti-fHbp JAR 5): no detectable binding
10 | 3 (HDHKTQLDP) [Clone 3] | ++++ (O.D. from 2 to 3.5) | ++++ (O.D. from 2 to 3.5) | 
11 | TKDDPLKQHLALSAGDPAKC (also: conjugated to KLH) [JAR 4 Scrambled, scrambled native fHbp peptide, negative control, conjugated to KLH, reference compound] |  |  | mAb Reactivity P1.2 (anti-PorA P1.2 mAb): − (no detectable binding at 50 μg/ml); mAb Reactivity JAR 4 (anti-fHbp mAb JAR 4): − (no detectable binding at 50 μg/ml); mAb Reactivity JAR 5 (anti-fHbp JAR 5): − (no detectable binding at 50 μg/ml)
12 | 6 (FHDHKTANQ) [Clone 6] | + (O.D. from 0.15 to 0.5) | ++ (O.D. from 0.5 to 1) | 
13 | 13 (LCQERLSQRCGV) [Clone 13] | + (O.D. from 0.15 to 0.5) | + (O.D. from 0.15 to 0.5) | 
14 | 5 (GCMGYDHRSGCV) [Clone 5] | + (O.D. from 0.15 to 0.5) | ++ (O.D. from 0.5 to 1) | 
15 | 9 (NDERQMSDWYRA) [Clone 9] | + (O.D. from 0.15 to 0.5) | + (O.D. from 0.15 to 0.5) | 
16 | 17 (SDWGWGGRAEQH) [Clone 17] | + (O.D. from 0.15 to 0.5) | + (O.D. from 0.15 to 0.5) | 
17 | HFVQQTPQSQDPAKC (also: conjugated to KLH) [PorA P1.2, control peptide derived from loop 4 of PorA VR2, strain 2996, conjugated to KLH, reference compound] |  |  | mAb Reactivity P1.2 (anti-PorA P1.2 mAb): + (50% of maximal binding at 1-10 μg/ml); mAb Reactivity JAR 4 (anti-fHbp mAb JAR 4): − (no detectable binding at 50 μg/ml)
18 | 18 (VGWCGFERCSSA) [Clone 18] | + (O.D. from 0.15 to 0.5) | + (O.D. from 0.15 to 0.5) | 
19 | 12 (KDHRHMLWPEES) [Clone 12] | + (O.D. from 0.15 to 0.5) | + (O.D. from 0.15 to 0.5) | 
20 | 11 (LEWCGFSRCEVG) [Clone 11] | + (O.D. from 0.15 to 0.5) | + (O.D. from 0.15 to 0.5) | 
21 | AEGEFWTLAVFDHKAQTGDPAKC (also: conjugated to KLH) [JAR 4 Phage 2, synthetic peptide conjugated to keyhole limpet hemocyanin (KLH)] |  |  | mAb Reactivity P1.2 (anti-PorA P1.2 mAb): − (no detectable binding at 50 μg/ml); mAb Reactivity JAR 4 (anti-fHbp mAb JAR 4): ++ (50% of maximal binding at < 1 μg/ml); reactivity with JAR 4 by ELISA (anti-fHbp mAb JAR 4): reacted
22 | AQAFQTPVHSDPAKC (also: conjugated to KLH) [GNA 33, control peptide, a mimetic of PorA P1.2, conjugated to KLH, reference compound] |  |  | mAb Reactivity P1.2 (anti-PorA P1.2 mAb): + (50% of maximal binding at 1-10 μg/ml); mAb Reactivity JAR 4 (anti-fHbp mAb JAR 4): − (no detectable binding at 50 μg/ml)
23 | 8 (HDHRIWPLDVTA) [Clone 8] | + (O.D. from 0.15 to 0.5) | ++ (O.D. from 0.5 to 1) | 
24 | 7 (WRWCGFERCPEG) [Clone 7] | + (O.D. from 0.15 to 0.5) | ++ (O.D. from 0.5 to 1) | 
25 | 1 (HDHKLEGTE) [Clone 1] | +++ (O.D. from 1 to 2) | ++++ (O.D. from 2 to 3.5) | 
26 | D25A: recombinant v.1 fHbp (gene from MC58) with residue 25 changed to alanine (protein) CSSGGGGVAADIGAGLADALTAPLAHKDKGLQSLTLDQSVRKNEKLKLAAQGAEKTYGNGDSLNTGKLKNDKVSRFDFIRQIEVDGQLITLESGEFQVYKQSHSALTAFQTEQIQDSEHSGKMVAKRQFRIGDIAGEHTSFDKLPEGGRATYRGTAFGSDDAGGKLTYTIDFAAKQGNGKIEHLKSPELNVDLAAADIKPDGKRHAVISGSVLYNQAEKGSYSLGIFGGKAQEVAGSAEVKTVNGIRHIGLAAKQHHHHHH |  |  | decrease in JAR 4-reactivity compared with wild-type recombinant fHbp (JAR 4): approximately 1000 fold
